According to patent US20260042764A1, “COMPOSITIONS AND METHODS FOR INHIBITION OF KRAS” (TheRas, Inc., priority 2022, published 2026):

How the values were obtained:
GP2d cells (KRAS G12D) = assay: Cell-based pERK HTRF assay in GP2d cell (Biological Example 2); conditions: GP2d (KRAS G12D) cells, pERK HTRF
Summary of the method: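 GP2d (KRAS G12D) cells were plated in DMEM/10% FBS and treated the next day for 60 min with compounds. Dosing used 9-point half-log series starting at 1 μM or 100 nM in 0.25% DMSO. Lysates were read by HTRF pERK (d2/Eu cryptate antibodies) after 4–24 h at room temperature, with excitation at 320 nm and emission at 615 nm.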

SW620 cells (KRAS G12V) = assay: Cell-based pERK HTRF assay in SW620 cell (Biological Example 4); conditions: pERK HTRF
Summary of the method: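 This assay measures inhibition of ERK phosphorylation downstream of KRAS G12V in intact SW620 cells. Compounds are applied for 4 h over nine half-log concentrations starting at 1 μM, and pERK is quantified by HTRF.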

[1] = target: T1, Avi-KRAS G12V (1-169) GppNHp/RAF1 RBD-3xFLAG (52-151) (Homo sapiens, UniProt P01116, G12V); assay: Raf1-KRAS G12V-GppNHP disruption HTRF assay (Biological Example 1); format: binding; conditions: KRAS G12V, GppNHp-loaded
T1 construct: Avi-KRAS G12V (1-169)
T1 sequence (P01116 1-169 isoform P01116-2 G12V): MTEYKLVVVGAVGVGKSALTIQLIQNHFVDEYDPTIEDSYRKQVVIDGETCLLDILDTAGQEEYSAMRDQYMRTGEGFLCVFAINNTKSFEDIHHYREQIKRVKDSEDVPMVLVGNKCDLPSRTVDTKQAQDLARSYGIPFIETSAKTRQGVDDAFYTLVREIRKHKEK
Summary of the method: (§1)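 Compounds were tested for disruption of KRAS–RAF1 RBD binding by HTRF in 50 mM Tris pH 7.5, 100 mM NaCl, 5 mM MgCl2, 0.1% BSA, 0.01% Tween, 10% DMSO. Protein mix was incubated 1 h at room temperature with shaking, then detection reagents added for another 1 h. Activity expressed as percent of DMSO control.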

[2] = target: T2, Avi-KRAS G12D (1-169) GppNHp/RAF1 RBD-3xFLAG (52-151) (Homo sapiens, UniProt P01116, G12D); assay: Raf1-KRAS G12D-GppNHP disruption HTRF assay (Biological Example 1); format: binding; conditions: KRAS G12D, GppNHp-loaded
T2 construct: Avi-KRAS G12D (1-169)
T2 sequence (P01116 1-169 isoform P01116-2 G12D): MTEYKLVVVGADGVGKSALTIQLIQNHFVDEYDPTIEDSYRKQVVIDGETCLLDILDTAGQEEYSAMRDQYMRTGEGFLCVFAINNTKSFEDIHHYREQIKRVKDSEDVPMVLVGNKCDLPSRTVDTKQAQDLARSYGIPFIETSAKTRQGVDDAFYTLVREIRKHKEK
Summary of the method: as §1

[3] = target: T3, Avi-KRAS WT (1-169) GppNHp/RAF1 RBD-3xFLAG (52-151) (Homo sapiens, UniProt P01116); assay: Raf1-KRAS WT-GppNHP disruption HTRF assay (Biological Example 1); format: binding; conditions: KRAS WT, GppNHp-loaded
T3 construct: Avi-KRAS WT (1-169)
T3 sequence (P01116 1-169 isoform P01116-2): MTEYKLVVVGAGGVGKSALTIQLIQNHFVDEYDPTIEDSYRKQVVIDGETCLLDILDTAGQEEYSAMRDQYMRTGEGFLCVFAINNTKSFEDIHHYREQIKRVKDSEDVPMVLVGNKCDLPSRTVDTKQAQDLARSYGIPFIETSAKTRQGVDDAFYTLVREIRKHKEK
Summary of the method: as §1

[4] = target: T4, Avi-KRAS G12R (1-169) GppNHp/RAF1 RBD-3xFLAG (52-151) (Homo sapiens, UniProt P01116, G12R); assay: Raf1-KRAS G12R-GppNHP disruption HTRF assay (Biological Example 1); format: binding; conditions: KRAS G12R, GppNHp-loaded
T4 construct: Avi-KRAS G12R (1-169)
T4 sequence (P01116 1-169 isoform P01116-2 G12R): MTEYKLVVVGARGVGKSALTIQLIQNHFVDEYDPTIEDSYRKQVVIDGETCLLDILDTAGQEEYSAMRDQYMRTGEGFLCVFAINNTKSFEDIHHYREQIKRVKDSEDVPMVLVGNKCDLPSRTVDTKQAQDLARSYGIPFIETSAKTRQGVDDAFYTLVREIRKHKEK
Summary of the method: as §1

[5] = Homo sapiens, SW-620, SW620 (KRAS G12V) cells, class symbols

Row | SMILES | IC50 (GP2d cells (KRAS G12D); GP2d, class symbols) [nM] | IC50 (SW620 cells (KRAS G12V); [5]) [nM] | IC50 ([1]; class symbols) [nM] | IC50 ([2]; class symbols) [nM] | IC50 ([3]; class symbols) [nM] | IC50 ([4]; class symbols) [nM] | IC50 (GP2d cells (KRAS G12D)) [nM] | IC50 (SW620 cells (KRAS G12V); SW620 (KRAS G12V) cells) [nM] | IC50 ([1]; Table 11) [nM] | IC50 ([2]; Table 11) [nM] | IC50 ([3]; Table 11) [nM] | IC50 ([4]; Table 11) [nM] | IC50 (SW620 cells (KRAS G12V); Homo sapiens, SW-620, SW620 (KRAS G12V) cells) [nM]
1 | CCN(c1nc(OC[C@@]23CCCN2C[C@H](F)C3)nc2c(F)c(-c3ccc(F)c4sc(N)c(C#N)c34)c(C(F)(F)F)cc12)[C@H]1CCN(C(=O)[C@H]2CCO2)[C@@H]1C (atropisomer, axis not shown) [Compound 805] | < 100 | < 100 | < 100 | < 100 | < 100 | < 100 |  |  |  |  |  |  | 
2 | CCN(c1nc(OC[C@@]23CCCN2C[C@H](F)C3)nc2c(F)c(-c3ccc(F)c4sc(N)c(C#N)c34)c(C(F)(F)F)cc12)[C@H]1CCN(C(=O)[C@@H](C)OC)[C@@H]1C (atropisomer, axis not shown) [Compound 806] | < 100 | < 100 | 100 to 1000 | < 100 | < 100 | < 100 |  |  |  |  |  |  | 
3 | CCN(c1nc(OC[C@@]23CCCN2C[C@H](F)C3)nc2c(F)c(-c3ccc(F)c4sc(N)c(C#N)c34)c(C(F)(F)F)cc12)[C@@H]1CCN(C(=O)[C@@H](C)OC)[C@@H]1C (atropisomer, axis not shown) [Compound 807] | < 100 | < 100 | < 100 | < 100 | < 100 | < 100 |  |  |  |  |  |  | 
4 | CCN(c1nc(OC[C@@]23CCCN2C[C@H](F)C3)nc2c(F)c(-c3ccc(F)c4sc(N)c(C#N)c34)c(C(F)(F)F)cc12)[C@@H]1CCN(C(=O)[C@@H]2CC2(F)F)[C@@H]1C (atropisomer, axis not shown) [Compound 808] | < 100 | < 100 | < 100 | < 100 | < 100 | < 100 |  |  |  |  |  |  | 
5 | CCN(c1nc(OC[C@@]23CCCN2C[C@H](F)C3)nc2c(F)c(-c3ccc(F)c4sc(N)c(C#N)c34)c(C(F)(F)F)cc12)[C@H]1CCN(C(=O)OC2COC2)[C@@H]1C (atropisomer, axis not shown) [Compound 809] | < 100 | < 100 | < 100 | < 100 | < 100 | < 100 |  |  |  |  |  |  | 
6 | CCN(c1nc(OC[C@@]23CCCN2C[C@H](F)C3)nc2c(F)c(-c3ccc(F)c4sc(N)c(C#N)c34)c(C(F)(F)F)cc12)[C@H]1CCN(C(=O)O[C@H]2CCOC2)[C@@H]1C (atropisomer, axis not shown) [Compound 810] | < 100 | < 100 | < 100 | < 100 | < 100 | < 100 |  |  |  |  |  |  | 
7 | CO[C@@H](C)C(=O)N1CC[C@H](N(c2nc(OC[C@@]34CCCN3C[C@H](F)C4)nc3c(F)c(-c4ccc(F)c5sc(N)c(C#N)c45)c(C(F)(F)F)cc23)C2CC2)C1 (atropisomer, axis not shown) [Compound 811] | < 100 | < 100 | 100 to 1000 | < 100 | 100 to 1000 | 100 to 1000 |  |  |  |  |  |  | 
8 | N#Cc1c(N)sc2c(F)ccc(-c3c(C(F)(F)F)cc4c(N(C5CC5)[C@H]5CCN(C(=O)[C@H]6CCO6)C5)nc(OC[C@@]56CCCN5C[C@H](F)C6)nc4c3F)c12 (atropisomer, axis not shown) [Compound 812] | < 100 | < 100 | 100 to 1000 | < 100 | 100 to 1000 | 100 to 1000 |  |  |  |  |  |  | 
9 | N#Cc1c(N)sc2c(F)ccc(-c3c(C(F)(F)F)cc4c(N(C5CC5)[C@H]5CCN(C(=O)N6CC(F)C6)C5)nc(OC[C@@]56CCCN5C[C@H](F)C6)nc4c3F)c12 (atropisomer, axis not shown) [Compound 813] | < 100 | < 100 | 100 to 1000 | < 100 | 100 to 1000 | 100 to 1000 |  |  |  |  |  |  | 
10 | CC(C)C(=O)N1CC[C@H](N(CCF)c2nc(OC[C@@]34CCCN3C[C@H](F)C4)nc3c(F)c(-c4ccc(F)c5sc(N)c(C#N)c45)c(C(F)(F)F)cc23)C1 (atropisomer, axis not shown) [Compound 814] | < 100 | < 100 | 100 to 1000 | < 100 | 100 to 1000 | < 100 |  |  |  |  |  |  | 
11 | CCN(c1nc(OC[C@@]23CCCN2C[C@H](F)C3)nc2c(F)c(-c3ccc(F)c4sc(N)c(C#N)c34)c(C(F)(F)F)cc12)[C@H]1CC(=O)N(CCOC)C1 (atropisomer, axis not shown) [Compound 815] | < 100 | < 100 | < 100 | < 100 | < 100 | < 100 |  |  |  |  |  |  | 
12 | CC(=O)N1CC[C@@H](N(C)c2nc(OC[C@@]34CCCN3C[C@H](F)C4)nc3c(F)c(-c4ccc(F)c5sc(N)c(C#N)c45)c(C(F)(F)F)cc23)[C@H]1C (single isomer, unassigned) [Compound 192] |  |  |  |  |  |  | > 1000 | > 1000 | > 10000 | > 10000 | > 10000 | > 10000 | 
13 | CC(=O)N1CC[C@H](N(C)c2nc(OC[C@@]34CCCN3C[C@H](F)C4)nc3c(F)c(-c4ccc(F)c5sc(N)c(C#N)c45)c(C(F)(F)F)cc23)[C@@H]1C (single isomer, unassigned) [Compound 194] |  |  |  |  |  |  | > 1000 | > 1000 | > 10000 | > 10000 | > 10000 | > 10000 | 
14 | CC(=O)N1CC[C@H](N(C)c2nc(OC[C@@]34CCCN3C[C@H](F)C4)nc3c(F)c(-c4ccc(F)c5sc(N)c(C#N)c45)c(C(F)(F)F)cc23)[C@@H]1C (single isomer, unassigned) [Compound 195] |  |  |  |  |  |  | 100 to 1000 | 100 to 1000 | 1000 to 10000 | 1000 to 10000 | 1000 to 10000 | 1000 to 10000 | 
15 | CCN(C)c1nc(OC[C@@]23CCCN2C[C@H](F)C3)nc2c(F)c(-c3ccc(F)c4sc(N)c(C#N)c34)c(C(F)(F)F)cc12 (single isomer, unassigned) [Compound 196] |  |  |  |  |  |  | < 100 |  | 100 to 1000 | < 100 | < 100 | < 100 | < 100
16 | N#Cc1c(N)sc2c(F)ccc(-c3c(C(F)(F)F)cc4c(N5CCOCC5)nc(OC[C@@]56CCCN5C[C@H](F)C6)nc4c3F)c12 (single isomer, unassigned) [Compound 199] |  |  |  |  |  |  | > 1000 | > 1000 | > 10000 | > 10000 | > 10000 | > 10000 | 
17 | CN(c1nc(OC[C@@]23CCCN2C[C@H](F)C3)nc2c(F)c(-c3ccc(F)c4sc(N)c(C#N)c34)c(C(F)(F)F)cc12)[C@H]1CCS(=O)(=O)C1 (single isomer, unassigned) [Compound 220] |  |  |  |  |  |  | > 1000 | > 1000 | > 10000 | > 10000 | > 10000 | > 10000 | 
18 | CN(c1nc(OC[C@@]23CCCN2C[C@H](F)C3)nc2c(F)c(-c3ccc(F)c4sc(N)c(C#N)c34)c(C(F)(F)F)cc12)[C@H]1CCS(=O)(=O)C1 (single isomer, unassigned) [Compound 221] |  |  |  |  |  |  | < 100 | < 100 | 100 to 1000 | 100 to 1000 | 100 to 1000 | 100 to 1000 | 
19 | N#Cc1c(N)sc2c(F)ccc(-c3c(C(F)(F)F)cc4c(N5CC6CC(C5)O6)nc(OC[C@@]56CCCN5C[C@H](F)C6)nc4c3F)c12 (single isomer, unassigned) [Compound 276] |  |  |  |  |  |  | > 1000 | 100 to 1000 | > 10000 | 1000 to 10000 | 1000 to 10000 | 1000 to 10000 | 
